Drawing on patent publication US8822505B2, “Azetidine derivatives” (Hoffmann-La Roche Inc., priority 2012, dated 2014), this text covers IC50 for 18 compounds.

SMILES strings stand for the structures.

The term IC50 denotes the concentration needed to halve the response being measured.

One assay deals with human Cat S (Homo sapiens (Human), UniProt P25774). The assay can be described thus: Cathepsin enzyme inhibition assay (human Cat S). It is filed as biochemical. The note with it: enzyme 1 nM, substrate Z-Val-Val-Arg-AMC 20 μM, pH 6.5. As for the experimental part: (§1) Cathepsin Enzyme Inhibition Assay
(§2) Enzyme activity is measured by observing the increase in fluorescence intensity caused by cleavage of a peptide substrate containing a fluorophore whose emission is quenched in the intact peptide.
(§3) Assay buffer: 100 mM potassium phosphate pH 6.5, EDTA-Na 5 mM, Triton X-100 0.001%, DTT 5 mM.
(§4) Enzymes (all at 1 nM): human and mouse Cathepsin S, Cat K, Cat B, Cat L.
(§5) Substrate (20 μM): Z-Val-Val-Arg-AMC, except for Cat K which uses Z-Leu-Arg-AMC (both from Bachem).
Enzyme is added to the substance dilutions in 96-well microtitre plates and the reaction is started with substrate. […] IC50 are calculated by standard methods.
Inhibition of human Cat S, mouse Cat S, human Cat K, human Cat B, human Cat L and mouse Cat L have been measured separately.

The target in the next assay is human Cat L (Homo sapiens (Human), UniProt P07711). The assay can be described thus: Cathepsin enzyme inhibition assay (human Cat L). The note with it: enzyme 1 nM, substrate Z-Val-Val-Arg-AMC 20 μM, pH 6.5. It is filed as biochemical. As for the experimental part: as §1, §2, §3, §4, §5
Excitation 360 nm, Emission 465 nm.
Enzyme is added to the substance dilutions in 96-well microtitre plates and the reaction is started with substrate. Fluorescence emission is measured over 20 minutes, during which time a linear increase is observed in the absence of inhibitor. IC50 are calculated by standard methods.
Inhibition of human Cat S, mouse Cat S, human Cat K, human Cat B, human Cat L and mouse Cat L have been measured separately. The results obtained for human Cat S and L for representative compounds of the invention are expressed in the following table in μM.

Sequence of human Cat L (P07711 114-333): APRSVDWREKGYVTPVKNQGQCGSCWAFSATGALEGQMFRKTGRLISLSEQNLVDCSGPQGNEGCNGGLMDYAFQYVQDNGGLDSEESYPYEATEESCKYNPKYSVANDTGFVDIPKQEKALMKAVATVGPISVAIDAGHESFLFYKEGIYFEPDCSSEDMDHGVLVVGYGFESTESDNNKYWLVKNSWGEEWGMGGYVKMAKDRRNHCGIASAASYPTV
Sequence of human Cat S (P25774 115-331): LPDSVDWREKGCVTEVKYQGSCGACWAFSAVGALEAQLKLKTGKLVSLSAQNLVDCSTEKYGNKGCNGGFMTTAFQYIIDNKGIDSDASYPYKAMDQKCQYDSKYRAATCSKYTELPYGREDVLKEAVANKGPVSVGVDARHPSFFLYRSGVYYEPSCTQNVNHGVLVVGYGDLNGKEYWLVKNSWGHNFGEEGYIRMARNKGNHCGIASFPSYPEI

As to `COc1ccc(S(=O)(=O)[C@@H]2C[C@@H](C(=O)NC3(C#N)CC3)N(C(=O)C3(c4ccc(Cl)cn4)CN(C(=O)OC(C)(C)C)C3)C2)c(Cl)c1` [Example 1, 3-[(2S,4R)-4-(2-Chloro-4-methoxy-benzenesulfonyl)-2-(1-cyano-cyclopropylcarbamoyl)-pyrrolidine-1-carbonyl]-3-(5-chloro-pyridin-2-yl)-azetidine-1-carboxylic acid tert-butyl ester], the IC50 against human Cat S is 0.00322 µM; against human Cat L it was 1.07 µM. For `COc1ccc(S(=O)(=O)[C@@H]2C[C@@H](C(=O)NC3(C#N)CC3)N(C(=O)C3(c4ccc(Cl)cn4)CNC3)C2)c(Cl)c1` [Example 2, (2S,4R)-4-(2-Chloro-4-methoxy-benzenesulfonyl)-1-[3-(5-chloro-pyridin-2-yl)-azetidine-3-carbonyl]-pyrrolidine-2-carboxylic acid (1-cyano-cyclopropyl)-amide], in that order: 0.00149 µM and 0.0381 µM.

`COc1ccc(S(=O)(=O)[C@@H]2C[C@@H](C(=O)NC3(C#N)CC3)N(C(=O)C3(c4ccc(Cl)cn4)CN(C)C3)C2)c(Cl)c1` [Example 3, (2S,4R)-4-(2-Chloro-4-methoxy-benzenesulfonyl)-1-[3-(5-chloro-pyridin-2-yl)-1-methyl-azetidine-3-carbonyl]-pyrrolidine-2-carboxylic acid (1-cyano-cyclopropyl)-amide]: the concentration for half-maximal inhibition (IC50) on human Cat S came to 0.0012 µM; against human Cat L, 0.292 µM.

Take `CC(C)(C)OC(=O)N1CC(C(=O)N2C[C@H](S(=O)(=O)c3ccc(OCC(F)(F)F)cc3Cl)C[C@H]2C(=O)NC2(C#N)CC2)(c2ccc(Cl)cn2)C1` [Example 4, 3-(5-Chloro-pyridin-2-yl)-3-[(2S,4R)-4-[2-chloro-4-(2,2,2-trifluoro-ethoxy)-benzenesulfonyl]-2-(1-cyano-cyclopropylcarbamoyl)-pyrrolidine-1-carbonyl]-azetidine-1-carboxylic acid tert-butyl ester]: the IC50 worked out at 0.00275 µM against human Cat S and 1.24 µM against human Cat L. The like results for `CC(C)(C)OC(=O)N1CC(C(=O)N2C[C@H](S(=O)(=O)c3ccc(OCC(F)(F)F)cc3Cl)C[C@H]2C(=O)NC2(C#N)CC2)(c2ccc(Br)cn2)C1` [Example 5, 3-(5-Bromo-pyridin-2-yl)-3-[(2S,4R)-4-[2-chloro-4-(2,2,2-trifluoro-ethoxy)-benzenesulfonyl]-2-(1-cyano-cyclopropylcarbamoyl)-pyrrolidine-1-carbonyl]-azetidine-1-carboxylic acid tert-butyl ester] were, in that order, 0.00369 µM and 0.753 µM. Compound `N#CC1(NC(=O)[C@@H]2C[C@@H](S(=O)(=O)c3ccc(OCC(F)(F)F)cc3Cl)CN2C(=O)C2(c3ccc(Cl)cn3)CNC2)CC1` [Example 6, (2S,4R)-1-[3-(5-Chloro-pyridin-2-yl)-azetidine-3-carbonyl]-4-[2-chloro-4-(2,2,2-trifluoro-ethoxy)-benzenesulfonyl]-pyrrolidine-2-carboxylic acid (1-cyano-cyclopropyl)-amide] registered a half-maximal inhibitory concentration (IC50) on human Cat L of 0.0898 µM. That is a double-digit nanomolar value. On to `N#CC1(NC(=O)[C@@H]2C[C@@H](S(=O)(=O)c3ccc(OCC(F)(F)F)cc3Cl)CN2C(=O)C2(c3ccc(Br)cn3)CNC2)CC1` [Example 7, (2S,4R)-1-[3-(5-Bromo-pyridin-2-yl)-azetidine-3-carbonyl]-4-[2-chloro-4-(2,2,2-trifluoro-ethoxy)-benzenesulfonyl]-pyrrolidine-2-carboxylic acid (1-cyano-cyclopropyl)-amide], for which the half-maximal inhibitory concentration (IC50) at human Cat S was determined as 0.00382 µM; at human Cat L, 0.0735 µM. `N#CC1(NC(=O)[C@@H]2C[C@@H](S(=O)(=O)c3ccc(OCC(F)(F)F)cc3Cl)CN2C(=O)C2(c3ccc(Cl)cn3)CN(CC(F)F)C2)CC1` [Example 8, (2S,4R)-1-[3-(5-Chloro-pyridin-2-yl)-1-(2,2-difluoro-ethyl)-azetidine-3-carbonyl]-4-[2-chloro-4-(2,2,2-trifluoro-ethoxy)-benzenesulfonyl]-pyrrolidine-2-carboxylic acid (1-cyano-cyclopropyl)-amide]: the concentration for half-maximal inhibition (IC50) on human Cat S worked out at 0.000694 µM; against human Cat L it was 0.141 µM.

Consider `N#CC1(NC(=O)[C@@H]2C[C@@H](S(=O)(=O)c3ccc(OCC(F)(F)F)cc3Cl)CN2C(=O)C2(c3ccc(Br)cn3)CN(CC(F)F)C2)CC1` [Example 9, (2S,4R)-1-[3-(5-Bromo-pyridin-2-yl)-1-(2,2-difluoro-ethyl)-azetidine-3-carbonyl]-4-[2-chloro-4-(2,2,2-trifluoro-ethoxy)-benzenesulfonyl]-pyrrolidine-2-carboxylic acid (1-cyano-cyclopropyl)-amide], for which the 50% inhibitory concentration (IC50) against human Cat S was 0.000779 µM; at human Cat L, 0.0917 µM. With `CC(C)(C)OC(=O)N1CC(C(=O)N2C[C@H](S(=O)(=O)c3ccccc3Cl)C[C@H]2C(=O)NC2(C#N)CC2)(c2ncc(Cl)cc2F)C1` [Example 10, 3-[(2S,4R)-4-(2-Chloro-benzenesulfonyl)-2-(1-cyano-cyclopropylcarbamoyl)-pyrrolidine-1-carbonyl]-3-(5-chloro-3-fluoro-pyridin-2-yl)-azetidine-1-carboxylic acid tert-butyl ester], the concentration for half-maximal inhibition (IC50) against human Cat S stood at 0.00126 µM; at human Cat L, 0.194 µM.

Turning to `CC(C)(C)OC(=O)N1CC(C(=O)N2C[C@H](S(=O)(=O)c3ccccc3Cl)C[C@H]2C(=O)NC2(C#N)CC2)(c2ncc(Br)cc2F)C1` [Example 11, tert-Butyl 3-(5-bromo-3-fluoropyridin-2-yl)-3-((2S,4R)-4-(2-chlorophenylsulfonyl)-2-(1-cyanocyclopropylcarbamoyl)pyrrolidine-1-carbonyl)azetidine-1-carboxylate], the IC50 came to 0.00127 µM on human Cat S and 0.0705 µM on human Cat L.

As to `N#CC1(NC(=O)[C@@H]2C[C@@H](S(=O)(=O)c3ccccc3Cl)CN2C(=O)C2(c3ncc(Cl)cc3F)CNC2)CC1` [Example 12, (2S,4R)-1-(3-(5-Chloro-3-fluoropyridin-2-yl)azetidine-3-carbonyl)-4-(2-chlorophenylsulfonyl)-N-(1-cyanocyclopropyl)pyrrolidine-2-carboxamide], the 50% inhibitory concentration (IC50) on human Cat S amounted to 0.00107 µM; against human Cat L, 0.0236 µM. For `N#CC1(NC(=O)[C@@H]2C[C@@H](S(=O)(=O)c3ccccc3Cl)CN2C(=O)C2(c3ncc(Br)cc3F)CNC2)CC1` [Example 13, (2S,4R)-1-[3-(5-Bromo-3-fluoro-pyridin-2-yl)-azetidine-3-carbonyl]-4-(2-chloro-benzenesulfonyl)-pyrrolidine-2-carboxylic acid (1-cyano-cyclopropyl)-amide], the values for the IC50 on human Cat S and against human Cat L were 0.00109 µM and 0.0046 µM, respectively. With `CN1CC(C(=O)N2C[C@H](S(=O)(=O)c3ccccc3Cl)C[C@H]2C(=O)NC2(C#N)CC2)(c2ncc(Br)cc2F)C1` [Example 14, (2S,4R)-1-[3-(5-Bromo-3-fluoro-pyridin-2-yl)-1-methyl-azetidine-3-carbonyl]-4-(2-chloro-benzenesulfonyl)-pyrrolidine-2-carboxylic acid (1-cyano-cyclopropyl)-amide], the half-inhibitory concentration (IC50) against human Cat L was found to be 0.0125 µM. For `CCN1CC(C(=O)N2C[C@H](S(=O)(=O)c3ccccc3Cl)C[C@H]2C(=O)NC2(C#N)CC2)(c2ncc(Br)cc2F)C1` [Example 15, (2S,4R)-1-[3-(5-Bromo-3-fluoro-pyridin-2-yl)-1-ethyl-azetidine-3-carbonyl]-4-(2-chloro-benzenesulfonyl)-pyrrolidine-2-carboxylic acid (1-cyano-cyclopropyl)-amide], the half-maximal inhibitory concentration (IC50) is 0.000721 µM on human Cat S and 0.0201 µM at human Cat L. For `CN1CC(C(=O)N2C[C@H](S(=O)(=O)c3ccccc3Cl)C[C@H]2C(=O)NC2(C#N)CC2)(c2ncc(Cl)cc2F)C1` [Example 16, (2S,4R)-4-(2-Chloro-benzenesulfonyl)-1-[3-(5-chloro-3-fluoro-pyridin-2-yl)-1-methyl-azetidine-3-carbonyl]-pyrrolidine-2-carboxylic acid (1-cyano-cyclopropyl)-amide], in that order: 0.000525 µM and 0.0398 µM. For `C[C@H](Oc1ccc(S(=O)(=O)[C@@H]2C[C@@H](C(=O)NC3(C#N)CC3)N(C(=O)C3(c4ncc(Cl)cc4F)CCN3C(=O)OC(C)(C)C)C2)c(Cl)c1)C(F)(F)F` (stereo partly drawn) [Example 27, tert-butyl 2-(5-chloro-3-fluoropyridin-2-yl)-2-((2S,4R)-4-(2-chloro-4-((S)-1,1,1-trifluoropropan-2-yloxy)phenylsulfonyl)-2-(1-cyanocyclopropylcarbamoyl)pyrrolidine-1-carbonyl)azetidine-1-carboxylate], on human Cat L, the midpoint of inhibition, the IC50, lay at 0.528 µM. At human Cat L, `C[C@H](Oc1ccc(S(=O)(=O)[C@@H]2C[C@@H](C(=O)NC3(C#N)CC3)N(C(=O)C3(c4ncc(Cl)cc4F)CCN3C(=O)OC(C)(C)C)C2)c(Cl)c1)C(F)(F)F` (stereo partly drawn) [Example 28, tert-butyl 2-(5-chloro-3-fluoropyridin-2-yl)-2-((2S,4R)-4-(2-chloro-4-((S)-1,1,1-trifluoropropan-2-yloxy)phenylsulfonyl)-2-(1-cyanocyclopropylcarbamoyl)pyrrolidine-1-carbonyl)azetidine-1-carboxylate] gave an IC50 of 0.556 µM.
